Measured values from patent publication US20200115698A1, “PHARMACEUTICAL COMBINATION FOR TREATMENT OF FABRY DISEASE AND USE THEREOF” (MEIJI PHARMACEUTICAL UNIVERSITY, priority 2017, published 2020).
One block for each molecule: values may come before it.

Columns and labels:
[1] = target: T1, α-NAGA mutant (SEQ ID NO:8) (Homo sapiens, UniProt P17050, A191L/S188E); experiment: Screening of inhibitor (1): remaining enzyme activity of α-NAGA mutant with 4-methylumbelliferyl α-D-galactopyranoside; type: biochemical; conditions: 400 μM compound, pH 4.6, 37° C., 30 minutes
T1 sequence (P17050 with tags, fused parts or gaps S188E/A191L): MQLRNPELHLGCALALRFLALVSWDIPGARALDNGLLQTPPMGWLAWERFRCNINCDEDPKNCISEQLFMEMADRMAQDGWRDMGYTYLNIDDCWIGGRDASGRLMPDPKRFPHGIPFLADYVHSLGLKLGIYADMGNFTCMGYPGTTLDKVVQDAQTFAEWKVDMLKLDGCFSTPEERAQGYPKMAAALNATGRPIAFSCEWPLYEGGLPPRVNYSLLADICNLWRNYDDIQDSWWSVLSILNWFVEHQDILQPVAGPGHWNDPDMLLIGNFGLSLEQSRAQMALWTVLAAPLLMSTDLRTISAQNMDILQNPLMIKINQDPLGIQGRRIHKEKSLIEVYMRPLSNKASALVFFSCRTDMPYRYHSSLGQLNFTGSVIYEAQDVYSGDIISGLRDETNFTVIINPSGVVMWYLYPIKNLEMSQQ
Method: The screening of inhibitor was carried out as follows: An inhibitor candidate compound dissolved in purified water or DMSO was added to 20 ng of an α-NAGA mutant (SEQ ID NO:8) and 4 mM 4-methylumbelliferylα-D-galactopyranoside dissolved in 0.1 M phosphate-citrate buffer (pH 4.6) such that a concentration of the inhibitor candidate compound became 0.8, 1, or 400 μM, and the mixture thus obtained was caused to react at 37° C. for 30 minutes (the total amount was 50 μl). After the reaction, 950 μl of 0.2 M glycine buffer (pH 10.7) was added to stop the reaction. Then, released 4-methylumbelliferone was measured at an excitation wavelength of 355 nm and at a fluorescence wavelength of 460 nm with use of Wallac 1420 ARVO MX Multilabel Counter. Remaining enzyme activity was calculated based on the assumption that an enzyme activity value obtained in a case where purified water or DMSO is added instead of the inhibitor candidate compound is 100%.

α-NAGA mutant [2] = target: T2, α-NAGA mutant (Homo sapiens, UniProt P17050, A191L/S188E); experiment: Screening of inhibitor (2): inhibition of enzyme activity of α-NAGA mutant; type: biochemical; conditions: 0.1, 1, or 10 μM compound, pH 4.6, 37° C., 30 minutes; FIG. 1
T2 sequence (P17050 with tags, fused parts or gaps S188E/A191L): T1 sequence (P17050 with tags, fused parts or gaps S188E/A191L)
Method: The second screening was carried out as follows: DGJ, GBS, N-C-DGJ, N-DGJ, or N-HE-DGJ dissolved in purified water or DMSO was added to 25 ng of an α-NAGA mutant and 4 mM 4-methylumbelliferylα-D-galactopyranoside dissolved in 0.1 M phosphate-citrate buffer (pH 4.6) such that a concentration of DGJ, GBS, N-C-DGJ, N-DGJ, or N-HE-DGJ became 0.1, 1, or 10 μM, and the mixture thus obtained was caused to react at 37° C. for 30 minutes (the total amount was 50 μl). After the reaction was finished, 950 μl of 0.2 M glycine buffer (pH 10.7) was added to stop the reaction. Then, released 4-methylumbelliferone was measured at an excitation wavelength of 355 nm and at a fluorescence wavelength of 460 nm with use of Wallac 1420 ARVO MX Multilabel Counter. Remaining enzyme activity was calculated based on the assumption that an enzyme activity value obtained in a case where purified water or DMSO is added instead of the inhibitor candidate compound is 100%. FIG. 1 is a view illustrating inhibition of enzyme activity of an α-NAGA mutant by DGJ.

α-NAGA mutant [3] = target: T2, α-NAGA mutant; experiment: Calculation of inhibition constant Ki (Lineweaver-Burk plot); type: biochemical; conditions: substrate 1-8 mM; DGJ 100-400 nM, GBS 200-800 nM; pH 4.6; FIG. 2
Method: Enzymatic analysis was carried out by using, as a reaction liquid, 50 ng of an α-NAGA mutant and 0.1 M phosphate-citrate buffer (pH 4.6) in which a 4-methylumbelliferylα-D-galactopyranoside substrate was dissolved at any of concentrations (1, 2, 4, 6, and 8 mM) (the total amount was 50 μl). In measuring inhibitory activity, reaction was carried out with a reaction liquid which contained DGJ at a concentration of 100, 200, or 400 nM or GBS at a concentration of 200, 400, or 800 nM. After the reaction was carried out at 37° C. for 10 minutes, 950 μl of 0.2 M glycine buffer (pH 10.7) was added to stop the reaction. Then, released 4-methylumbelliferone was measured at an excitation wavelength of 355 nm and at a fluorescence wavelength of 460 nm with use of Wallac 1420 ARVO MX Multilabel Counter. From these values, a Lineweaver-Burk plot was prepared and an inhibition constant Ki was calculated from slopes in the plot which correspond to respective concentrations of the inhibitor.

[4] = test system: Fabry disease model mouse; conditions: Fabry disease model mouse to which the α-NAGA mutant has been administered; cited from earlier work

inhibition effect on α-NAGA mutant (remaining enzyme activity) [1]: the inhibition effect was seen
Molecule: O=S(=O)(O)C1NC(CO)C(O)C(O)C1O (stereo not shown) [GBS, galactostatin bisulfite]
inhibition of enzyme activity of an α-NAGA mutant (remaining enzyme activity) (α-NAGA mutant [2]): had the effect of inhibiting activity of an α-NAGA mutant
inhibition pattern from inhibition constant Ki (α-NAGA mutant [3]): inhibitory activity by competitive inhibition

B1: α-NAGA mutant: mutant human α-N-acetylgalactosaminidase, serine 188 to glutamic acid and alanine 191 to leucine, having α-galactosidase activity (SEQ ID NO:8 used) (protein)
chain: T1 sequence (P17050 with tags, fused parts or gaps S188E/A191L)
degradation of Gb3 and Lyso-Gb3 accumulated in organs [4]: Gb3 and Lyso-Gb3 which are accumulated in organs are degraded
